# pIC50: −log10 of the molar value.
# What was measured:
# COX-1 = target: T1, COX-1 (Homo sapiens, UniProt P23219); assay: Cox-1 assay: PGE2 formation in human platelets; type: cell-based; settings: for IC50: arachidonic acid 100 μM, PGE2; for inhibition at 10 µM: compounds are screened at 10 μM
# T1 construct: endogenous in cells; host or cells: human platelets
# Procedure: Test compound and/or vehicle is incubated with human platelets (10^8/ml) containing the phospholipase inhibitor MLnFP (100 μM) for 15 minutes at 37° C. Arachidonic acid (100 μM) is then added for a further 15 minute incubation period. The reaction is stopped by addition of 1 N HCl and neutralized with 1N NaOH. PGE2 levels in the supernatant are determined using the Amersham EIA kit. […]
# [1] = target: T2, Cyclooxygenase-2 (human recombinant, expressed in Sf9 cell) (Homo sapiens, UniProt P35354); assay: Cox-2 assay: human recombinant cyclooxygenase-2, PGE2 by EIA; type: biochemical; settings: human recombinant enzyme; for IC50: 0.3 μM arachidonic acid, PGE2; for inhibition at 10 µM: compounds are screened at 10 μM
# T2 construct: purchased Cayman 60122; host or cells: Sf9 cell
# T2 sequence (P35354 18-604): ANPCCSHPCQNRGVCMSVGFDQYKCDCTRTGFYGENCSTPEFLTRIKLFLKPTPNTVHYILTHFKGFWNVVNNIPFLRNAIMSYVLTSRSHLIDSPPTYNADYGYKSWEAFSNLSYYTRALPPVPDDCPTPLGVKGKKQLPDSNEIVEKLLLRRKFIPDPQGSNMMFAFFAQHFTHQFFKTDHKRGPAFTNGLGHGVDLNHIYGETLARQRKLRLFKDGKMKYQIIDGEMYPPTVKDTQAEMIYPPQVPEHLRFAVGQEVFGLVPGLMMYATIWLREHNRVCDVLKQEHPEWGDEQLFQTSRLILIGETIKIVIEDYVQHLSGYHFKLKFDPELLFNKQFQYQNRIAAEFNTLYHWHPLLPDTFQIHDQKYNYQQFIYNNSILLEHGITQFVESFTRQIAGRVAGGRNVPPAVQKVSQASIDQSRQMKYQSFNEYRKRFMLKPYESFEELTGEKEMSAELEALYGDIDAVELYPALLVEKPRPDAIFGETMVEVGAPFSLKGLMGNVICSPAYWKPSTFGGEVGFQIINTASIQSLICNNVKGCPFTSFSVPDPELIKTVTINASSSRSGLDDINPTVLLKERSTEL
# Procedure: Test compound and/or vehicle is pre-incubated with 0.11 U cyclooxygenase-2, 1 mM reduced glutathione (GSH), 500 μM phenol and 1 μM hematin for 15 minutes at 37° C. The reaction is initiated by addition of 0.3 μM arachidonic acid as substrate in Tris-HCl pH 7.7 and terminated after a 5 minute incubation at 37° C. by addition of 1N HCl. Following centrifugation, substrate conversion to PGE2 is measured by an Amersham EIA kit. Compounds are screened at 10 μM. […] J. Physiol.
# [2] = test system: prostate cancer cell line (LNCaP); assay: Cell cytotoxicity, MTT assay, LNCaP; type: cell-based; settings: Homo sapiens, 72 h, three days incubation
# Procedure: (§1) Normal prostate cells (PREC, Cambrex East Rutherford N.J.), prostate cancer cell line (LNCaP, ATCC), PBL (peripheral blood leukocytes-buffy coat San Diego Blood Bank), and primary CLL cells were incubated for one to two days in RPMI-1640 and 10% FBS (fetal bovine serum). They were plated in 96-well plates at 100,000 cells/well. Titrated concentrations of the compound to be tested were added to the culture medium. The cells were incubated three days at 37° C., 5% CO2. Viability of the cells was assayed by standard MTT assay. Each drug concentration was done in duplicate. MTT assay: 10 μl of 12 mM 3,[4,5-dimethylthiazol-2-yl]-2,5-diphenyltetrazolium bromide (MTT) (SIGMA) was added to each well. The cells were incubated at 37° C., 5% CO2 for 4 hours. 100 μl of 20% SDS, 0.015M HCl was added to each well and the cells were incubated overnight. The plates were read at absorbance 595 nm.
# [3] = test system: Normal prostate cells (PREC); assay: Cell cytotoxicity, MTT assay, PREC; type: cell-based; settings: Homo sapiens, 72 h, three days incubation
# Procedure: as §1
# primary CLL cells = assay: Cell cytotoxicity, MTT assay, primary CLL cells; type: cell-based; settings: 72 h, three days incubation
# Procedure: as §1
# [4] = test system: PBL (peripheral blood leukocytes); assay: Cell cytotoxicity, MTT assay, PBL; type: cell-based; settings: Leukocyte, 72 h, three days incubation
# Procedure: as §1
# [5] = test system: cyclin D1 transcripts in LNCaP cells; assay: Cyclin D1 transcript expression by quantitative PCR in LNCaP cells; type: cell-based; settings: 24 hours, compound 42 (50 μM), compound 36 (100 μM), compound 1 (20 μM), normalized to 18s, FIG. 2
# Procedure: Cyclin D1 Transcript Expression Levels as measured by quantitative PCR assay. LNCaP cells were cultured at 37° C., 5% CO2 for 24 hours untreated or in the presence of R-etodolac (200 μM), compound 42 (50 μM), compound 36 (100 μM), or compound 1 (20 μM) (see Table II for structures). Cells were harvested by trypsinization, washed with PBS, and stored at −80° C. Total cellular RNA was prepared from cell pellets using the RNEasy® Mini kit (Qiagen, Inc., Valencia, Calif.). RNA was quantified by spectrophotometer. Approximately 2 μg of RNA was used to prepare cDNA using the ThermoScript™ RT-PCR System (Invitrogen, Carlsbad, Calif.).
# The levels of cyclin D1 transcripts in the cDNA samples were measured using a quantitative PCR (qPCR) assay specific for cyclin D1. The cyclin D1 transcript was amplified using the following primer pair:
# The cyclin D1 primers are described in a manuscript from Takayasu et al. (2001 Clin. Cancer Res. 7:901-908). All assays were performed in duplicate. All qPCR assays were performed and analyzed using a Bio-Rad iCycler (Bio-Rad, Hercules, Calif.). The levels of cyclin D1 transcripts were normalized for total input cDNA by performing a separate assay to detect the levels of a housekeeping gene (18s) using the following primer pair:
# The samples were normalized for 18s transcript levels using the method of Livak et al. (2001 Methods 25:402-408). The level of cyclin D1 transcripts in the control sample was set to 1. FIG. 2 represents the averaged normalized cyclin D1 transcripts±standard deviation for three independent experiments (two independent experiments for compound 1).
# [6] = test system: Cyclin D1 protein in LNCaP cells; assay: Western blot of Cyclin D1 protein in LNCaP cell lysates; type: cell-based; settings: LNCaP cell lysates from treated cells
# [7] = test system: Daudi human Burkitt Lymphoma derived tumors; assay: Daudi lymphoma murine xenograft model, efficacy; type: in vivo, male SCID mice; settings: for mean tumor volume at termination of the study: p.o. in sesame oil, compound 47 250, compound 36 (printed 26) 250, compound 1 125, R-etodolac 400 mg/kg/d, control 1583 mm^3; for 4× Growth: time for the tumors to grow to 4× the initial volume at dosing, control 8.9 d; for 8× Growth: time for the tumors to grow to 8× the initial volume at dosing, control 14.5 d
# Procedure: Male SCID mice, 6-8 weeks of age, obtained from Simonsen Laboratories, Inc. (Gilroy, Calif.) were housed in groups of five.
# The Daudi human Burkitt Lymphoma cells were obtained from American Type Culture Collection and were inoculated subcutaneously (1.0×10^7 cells/mouse) on the flanks of SCID mice. After the tumors reached approximately 100 mm^3 treatment was initiated.
# Body weights and tumor volume of all mice were measured and recorded twice weekly. Tumors were measured in three dimensions and volume calculated using the formula: […]. Time for the tumors (days) to grow to 4× and 8× the initial volume at dosing were assessed. Study compounds were administered at 125 or 250 mg/kg/day (M-F) via oral gavage until the end of the study.
# The efficacy of chlorambucil (2 and 3 mg/kg/d), (R-etodoalc) (400 mg/kg/d) and compound 47 (250 mg/kg/d), compound 26 (250 mg/kg/d), and compound 1 (125 mg/kg/d) against Daudi derived tumors in male SCID mice were studied. R-etodolac and compounds 1, 26 and 47 were prepared in sesame oil. Both chlorambucil (ip, 0.1 ml) and compounds of the invention (per os [p.o.], 0.31 ml) were dosed daily (Monday to Friday) for two weeks. SDX-101 (0.31 ml) was dosed p.o. daily until the end of the study. […] However, all treated mice recovered after Day 2 and maintained their weights. There was no body weight loss observed in other treatment groups. At termination of the study, the control group mean tumor volume was 1583 mm^3. The mean tumor volume of chlorambucil treated groups were 864 and 766 mm^3 with 2 and 3 mg/kg/d chlorambucil treatment, respectively. The mean tumor volume of R-etodolac and compounds 1, […] and 47 were 802, 996, 1011, and 1157 mm^3 with compounds 47, 36, 1 and R-etodolac treatment, respectively. […] At termination of the study, tumor samples along with liver, kidney, and spleen samples from each group were collected and fixed in 10% buffered formalin for histopathology.
# T1 sequence (P23219 24-599): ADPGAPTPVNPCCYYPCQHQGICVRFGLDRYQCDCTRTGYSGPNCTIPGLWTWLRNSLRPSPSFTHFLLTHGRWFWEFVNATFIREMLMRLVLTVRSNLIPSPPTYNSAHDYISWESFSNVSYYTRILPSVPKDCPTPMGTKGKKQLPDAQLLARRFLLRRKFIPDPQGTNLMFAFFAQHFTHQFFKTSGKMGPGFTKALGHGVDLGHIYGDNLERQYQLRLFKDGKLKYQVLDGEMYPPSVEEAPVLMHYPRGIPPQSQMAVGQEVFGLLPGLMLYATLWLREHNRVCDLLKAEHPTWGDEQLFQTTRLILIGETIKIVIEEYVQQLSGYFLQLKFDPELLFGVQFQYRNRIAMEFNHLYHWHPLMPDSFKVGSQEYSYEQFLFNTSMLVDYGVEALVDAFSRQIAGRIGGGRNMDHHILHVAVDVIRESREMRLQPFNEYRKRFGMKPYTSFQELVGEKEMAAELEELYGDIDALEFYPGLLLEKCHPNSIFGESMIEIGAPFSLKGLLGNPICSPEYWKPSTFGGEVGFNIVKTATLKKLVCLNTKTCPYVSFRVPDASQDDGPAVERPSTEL
Structure (SMILES),IC50 (COX-1) [µM],inhibition at 10 µM (COX-1) [%],IC50 [1] [µM],inhibition at 10 µM [1] [%],pIC50 [2],pIC50 [3],pIC50 (primary CLL cells),pIC50 [4],cyclin D1 mRNA expression [5],Cyclin D1 protein expression (Western blot) [6],mean tumor volume at termination of the study [7] [mm^3],4× Growth [7] [days],8× Growth [7] [days],melting point [°C]
"CCc1cc(-c2ccccc2)cc2c3c([nH]c12)C(CC)(CCO)OCC3 (stereo not drawn) [Compound 1, 2-(1,8-DIETHYL-6-PHENYL-1,3,4,9-TETRAHYDRO-PYRANO[3,4-b]INDOL-1-YL)-ETHANOL]",< 10,96,< 10,100,4.85,4.28,4.14,4.12,inhibit cyclin D1 mRNA expression,reduced Cyclin D1 protein expression,1011,15.8,21.1,
"CCC1(CCO)OCCc2c1[nH]c1ccc(C)cc21 (stereo not drawn) [Compound 24, 2-(1-ETHYL-6-METHYL-1,3,4,9-TETRAHYDRO-PYRANO[3,4-b]INDOL-1-YL)-ETHANOL]",,,,,4.10,,,,,,,,,114 to 115
"CCC1(CCO)OCCc2c1[nH]c1c(C)cccc21 (stereo not drawn) [Compound 25, 2-(1-ETHYL-8-METHYL-1,3,4,9-TETRAHYDRO-PYRANO[3,4-b]INDOL-1-YL)-ETHANOL]",,,,,4.22,,,,,,,,,68
"CCC1(CCO)OCCc2c1[nH]c1c(Cl)cccc21 (stereo not drawn) [Compound 27, 2-(8-CHLORO-1-ETHYL-1,3,4,9-TETRAHYDRO-PYRANO[3,4-b]INDOL-1-YL)-ETHANOL]",> 300,24,> 300,3,4.28,3.85,4.28,3.82,,,,,,
"CCc1cccc2c3c([nH]c12)[C@@](CC)(CCO)OCC3 [Compound 35, R-2-(1,8-DIETHYL-1,3,4,9-TETRAHYDRO-PYRANO[3,4-b]INDOL-1-YL)-ETHANOL]",> 300,-69,> 300,-10,4.17,3.66,4.00,3.85,,,,,,
"CCC1(CCO)OCCc2c1[nH]c1c(C(C)C)cccc21 (stereo not drawn) [Compound 36, 2-(1-ETHYL-8-ISOPROPYL-1,3,4,9-TETRAHYDRO-PYRANO[3,4-b]INDOL-1-YL)-ETHANOL]",> 300,-4,> 300,18,4.52,3.80,4.30,3.80,inhibit cyclin D1 mRNA expression,reduced Cyclin D1 protein expression,996,13.5,20.8,
"CCC1(CCO)OCCc2c1[nH]c1ccc(Br)cc21 (stereo not drawn) [Compound 42, 2-(6-BROMO-1-ETHYL-1,3,4,9-TETRAHYDRO-PYRANO[3,4-b]INDOL-1-YL)-ETHANOL]",,,,,4.92,,,,inhibit cyclin D1 mRNA expression,reduced Cyclin D1 protein expression,,,,
"CCC1(CCO)OCCc2c1[nH]c1c(Cl)cc(Cl)cc21 (stereo not drawn) [Compound 46, 2-(6,8-DICHLORO-1-ETHYL-1,3,4,9-TETRAHYDRO-PYRANO[3,4-b]INDOL-1-YL)-ETHANOL]",,,,,4.74,,,4.70,,,,,,
"CCc1cc(Br)cc2c3c([nH]c12)C(CC)(CCO)OCC3 (stereo not drawn) [Compound 47, 2-(6-BROMO-1,8-DIETHYL-1,3,4,9-TETRAHYDRO-PYRANO[3,4-b]INDOL-1-YL)-ETHANOL]",68.6,45,> 100,78,5.52,4.85,4.68,4.22,,,802,16,21.5,
"CCc1cccc2c3c([nH]c12)C(CC)(CC(=O)O)OCC3 (stereo not drawn) [Etodolac, reference compound]",,,> 300,-14,3.91,3.38,3.70,3.46,,,,,,
"CCc1cccc2c3c([nH]c12)[C@@](CC)(CC(=O)O)OCC3 [R-etodolac, reference compound]",,,,,,,,,,reduced Cyclin D1 protein expression,1157,11,17,
